Measured values as given in patent US6426343B1, “Preparation and use of a specific GABA-Aα5 receptor ligand for treatment of Alzheimer's disease” (Merck Sharp & Dohme Ltd., priority 1995, dated 2002).

What was measured:
male Sprague Dawley rats = test: Pro-convulsant testing, acute treatment, PTZ infusion; format: in vivo, rat; conditions: 10.0 mg/kg IP 30 min prior to PTZ infusion; post hoc tests
Description: Sixty naive male Sprague Dawley rats (225-265 g) housed in groups of four with food and water freely available, served as subjects. The rats were assigned to one of six groups and given: Vehicle or 0.5, 1.0, 2.0, 4.0 mg/kg of […] or 10.0 mg/kg of the non-selective receptor inverse agonist, CGS 8216, a known pro-convulsant agent. Vehicle, FG 8094 or CGS 8216 was administered IP 30 min prior to an infusion of the convulsant, pentylenetetrazole (PTZ, 40 mg/ml). PTZ was infused into the tail vein of the rat at the rate of 1.0 ml/min. The latency to clonic and tonic seizure were recorded and the threshold to each was calculated using the equation: Threshold dose=infusion rate (ml/s)×PTZ (mg/ml)×(1000/rats weight)×latency(s).

[1] = system: α1 and α5-containing receptors; conditions: cited from earlier work
α3β3γ2 = target: T1, α3β3γ2 (Homo sapiens, UniProt P18507+P34903); test: Radioligand binding, membranes of stably transfected cells; conditions: [3H]Ro 15-1788 at twice Kd; mean±SEM, 3-6 determinations; read-out: Ki α3β3γ2
T1 construct: expressed in transfected cells
T1 sequence (P34903 29-492): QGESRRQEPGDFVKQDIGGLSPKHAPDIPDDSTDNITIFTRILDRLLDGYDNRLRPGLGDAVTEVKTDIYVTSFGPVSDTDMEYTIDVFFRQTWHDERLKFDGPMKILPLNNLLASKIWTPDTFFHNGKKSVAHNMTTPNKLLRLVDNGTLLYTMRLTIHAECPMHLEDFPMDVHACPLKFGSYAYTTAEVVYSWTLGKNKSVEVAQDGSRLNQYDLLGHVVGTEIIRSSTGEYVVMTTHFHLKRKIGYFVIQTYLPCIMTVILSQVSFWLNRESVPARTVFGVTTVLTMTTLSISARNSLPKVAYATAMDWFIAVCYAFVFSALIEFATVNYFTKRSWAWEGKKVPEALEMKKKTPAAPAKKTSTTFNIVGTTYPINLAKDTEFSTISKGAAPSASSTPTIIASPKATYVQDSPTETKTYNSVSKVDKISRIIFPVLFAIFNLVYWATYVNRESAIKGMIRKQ
T1 sequence (P28472 26-473 partner): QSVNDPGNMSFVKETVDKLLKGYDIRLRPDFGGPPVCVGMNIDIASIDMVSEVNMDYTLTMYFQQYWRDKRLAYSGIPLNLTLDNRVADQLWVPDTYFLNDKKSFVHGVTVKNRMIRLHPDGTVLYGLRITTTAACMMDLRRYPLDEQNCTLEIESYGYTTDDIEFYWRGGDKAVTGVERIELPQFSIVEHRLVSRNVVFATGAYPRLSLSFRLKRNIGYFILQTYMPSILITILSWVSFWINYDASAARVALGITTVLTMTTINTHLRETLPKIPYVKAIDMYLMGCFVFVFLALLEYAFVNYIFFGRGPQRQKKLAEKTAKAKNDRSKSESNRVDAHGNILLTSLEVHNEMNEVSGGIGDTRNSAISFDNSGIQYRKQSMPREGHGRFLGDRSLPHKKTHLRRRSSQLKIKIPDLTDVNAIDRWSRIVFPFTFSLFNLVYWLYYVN
T1 sequence (P18507 40-467 isoform P18507-1 limits assumed): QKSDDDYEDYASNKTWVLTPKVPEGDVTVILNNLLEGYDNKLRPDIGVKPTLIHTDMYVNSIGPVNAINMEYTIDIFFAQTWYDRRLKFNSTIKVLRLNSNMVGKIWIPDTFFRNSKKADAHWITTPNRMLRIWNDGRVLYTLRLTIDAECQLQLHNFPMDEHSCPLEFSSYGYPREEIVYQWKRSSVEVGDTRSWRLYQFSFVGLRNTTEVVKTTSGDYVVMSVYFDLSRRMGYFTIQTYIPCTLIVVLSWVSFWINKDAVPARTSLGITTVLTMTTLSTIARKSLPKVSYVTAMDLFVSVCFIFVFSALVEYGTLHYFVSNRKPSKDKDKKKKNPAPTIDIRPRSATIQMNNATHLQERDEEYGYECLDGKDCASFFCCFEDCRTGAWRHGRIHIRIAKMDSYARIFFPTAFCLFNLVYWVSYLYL

α5β3γ2 = target: T2, α5β3γ2 (Homo sapiens, UniProt P18507+P31644); test: as above; conditions: [3H]Ro 15-1788 at twice Kd; mean±SEM, 3-6 determinations; read-out: Ki α5β3γ2
T2 construct: expressed in transfected cells
T2 sequence (P31644 32-462): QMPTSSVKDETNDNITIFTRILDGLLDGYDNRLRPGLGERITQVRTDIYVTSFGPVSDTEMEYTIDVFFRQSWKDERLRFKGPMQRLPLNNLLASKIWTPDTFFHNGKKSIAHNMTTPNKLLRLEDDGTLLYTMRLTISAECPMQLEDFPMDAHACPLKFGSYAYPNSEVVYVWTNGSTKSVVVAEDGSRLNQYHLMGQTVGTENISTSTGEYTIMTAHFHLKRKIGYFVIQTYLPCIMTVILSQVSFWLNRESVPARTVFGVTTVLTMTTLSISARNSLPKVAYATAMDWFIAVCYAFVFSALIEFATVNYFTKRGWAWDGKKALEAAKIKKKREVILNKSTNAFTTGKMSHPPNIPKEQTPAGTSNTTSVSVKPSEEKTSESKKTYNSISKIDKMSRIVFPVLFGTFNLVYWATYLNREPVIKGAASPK
T2 sequence (P28472 26-473 partner): as the sequence (P28472 26-473 partner) above
T2 sequence (P18507 40-467 isoform P18507-1 limits assumed): as the sequence (P18507 40-467 isoform P18507-1 limits assumed) above

α6β3γ2 = target: T3, α6β3γ2 (Homo sapiens, UniProt P18507+Q16445); test: as above; conditions: [3H]Ro 15-4513 as radioligand; mean±SEM, 3-6 determinations; read-out: Ki α6β3γ2
T3 construct: expressed in transfected cells
T3 sequence (Q16445 20-453): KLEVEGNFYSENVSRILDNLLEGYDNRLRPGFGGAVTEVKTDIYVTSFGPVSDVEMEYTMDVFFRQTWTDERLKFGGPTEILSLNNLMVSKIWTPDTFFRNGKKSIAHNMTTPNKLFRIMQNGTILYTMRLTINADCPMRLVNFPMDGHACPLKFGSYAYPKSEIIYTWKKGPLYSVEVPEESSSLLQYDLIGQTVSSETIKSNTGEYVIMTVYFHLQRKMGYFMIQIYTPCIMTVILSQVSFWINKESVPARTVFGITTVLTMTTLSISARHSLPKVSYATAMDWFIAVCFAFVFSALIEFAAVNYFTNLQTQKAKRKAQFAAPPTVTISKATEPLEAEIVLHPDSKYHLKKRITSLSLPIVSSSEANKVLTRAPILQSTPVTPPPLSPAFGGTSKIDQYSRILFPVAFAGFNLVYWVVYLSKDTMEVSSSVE
T3 sequence (P28472 26-473 partner): as the sequence (P28472 26-473 partner) above
T3 sequence (P18507 40-467 isoform P18507-1 limits assumed): as the sequence (P18507 40-467 isoform P18507-1 limits assumed) above

[2] = in vivo; cited from earlier work

O=C1C2C=Nc3ccccc3C2=NN1c1ccccc1 (stereo not shown) [CGS 8216, reference compound]
threshold dose of PTZ to tonic seizures (male Sprague Dawley rats): significantly lowered the threshold doses to tonic seizures

Cc1nnc2ccc(-c3cccc(C(F)(F)F)c3)nn12 [CL 218,872]
relative affinity α1 versus α5-containing receptors [1]: greater anfinity for α1 than for α5-containing receptors

CCOC(=O)c1ncn2c1CN(C)C(=O)c1cc(N=[N+]=[N-])ccc1-2 [Ro 15-4513, reference compound]
Ki (α3β3γ2): 1.28 ± 0.06 nM | Ki (α5β3γ2): 0.24 ± 0.05 nM | Ki (α6β3γ2): 6.5 ± 0.6 nM

Cc1ccc(-c2nc3ccc(C)cn3c2CC(=O)N(C)C)cc1 [zolpidem]
relative affinity α1 versus α5-containing receptors [1]: greater anfinity for α1 than for α5-containing receptors

COC(=O)c1cc2c(cn1)[nH]c1ccccc12 [β-CCM]
spatial learning in the Morris watermaze [2]: enhanced spatial learning
